pIC50: −log10 of the molar value. Several values for one entry are separate records, joined by “and”; a condition that tells them apart may be missing. Equal entries are not always repeated.
Test system: 762968-020-R-J2-PDC spheroids viability
Experiment: Anticancer human tumor 762968-020-R-J2-PDC patient-derived colon carcinoma cell line growth inhibition [TAK]
Details: spheroids with HUVEC and MSC; for viability, T/C: stronger effect = lower value
In short: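 Spheroids of 60% malignant cells, 25% HUVEC and 15% hMSC were exposed to targeted agents combined with TAK-243 or ipatasertib. Concentrations started at or near clinical Cmax (10 microM if unknown) and descended in half-log steps.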
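Note: spheroids exposed to drug for 7 days before readout.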
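Throughout, for viability, T/C: 100% = DMSO vehicle control wells.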

Question: Which viability, T/C (compound 0.000316 µM) does the source give for `CC(C)CC(NC(=O)CNC(=O)c1cc(Cl)ccc1Cl)B1OC(=O)CC(CC(=O)O)(C(=O)O)O1` (stereo unspecified) here?
Answer: 100% and 110%

Question: What about the viability, T/C (compound 0.001 µM) of the same compound?
Answer: 109% and 98.2%

Question: What about the viability, T/C (compound 0.00316 µM) of the same compound?
Answer: 104% and 108%

Question: What about the viability, T/C (compound 0.01 µM) of the same compound?
Answer: 97.5% and 107%

Question: And the viability, T/C (compound 0.0316 µM)?
Answer: 96.1% and 98%

Question: What about the viability, T/C (compound 0.1 µM) of the same compound?
Answer: 78.6% and 80.6%

Question: And the pIC50 (curve of compound)?
Answer: < 7.00

Question: With `CC(C)CC(NC(=O)C(Cc1ccccc1)NC(=O)c1cnccn1)B(O)O` (stereo unspecified) as the compound, how does the viability, T/C (compound 31.6 pM) read?
Answer: 94.6% and 101%

Question: What about the viability, T/C (compound 0.0001 µM) of the same compound?
Answer: 102% and 101%

Question: And the viability, T/C (compound 0.000316 µM)?
Answer: 108% and 96.2%

Question: And the viability, T/C (compound 0.001 µM)?
Answer: 103% and 99.8%

Question: And the viability, T/C (compound 0.00316 µM)?
Answer: 109% and 99%

Question: And the viability, T/C (compound 0.01 µM)?
Answer: 90.6% and 93.7%

Question: And the pIC50 (curve of compound)?
Answer: < 8.00

Question: `CC(C)n1nc(-c2ccc3oc(N)nc3c2)c2c(N)ncnc21` was tested. Which viability, T/C (compound 0.000316 µM) did it give?
Answer: 99% and 96.9%

Question: What about the viability, T/C (compound 0.001 µM) of the same compound?
Answer: 99% and 101%

Question: What about the viability, T/C (compound 0.00316 µM) of the same compound?
Answer: 98.2% and 101%

Question: And the viability, T/C (compound 0.01 µM)?
Answer: 94.8% and 99.8%

Question: What about the viability, T/C (compound 0.0316 µM) of the same compound?
Answer: 89.5% and 103%

Question: And the viability, T/C (compound 0.1 µM)?
Answer: 66.5% and 83.3%

Question: What about the pIC50 (curve of compound) of the same compound?
Answer: < 7.00

Question: `COC1CC2CCC(C)C(O)(O2)C(=O)C(=O)N2CCCCC2C(=O)OC(C(C)CC2CCC(OCCO)C(OC)C2)CC(=O)C(C)C=C(C)C(O)C(OC)C(=O)C(C)CC(C)C=CC=CC=C1C` (stereo unspecified) + CC(C)NCC(C(=O)N1CCN(c2ncnc3c2C(C)CC3O)CC1)c1ccc(Cl)cc1 was tested. Which pIC50 (curve of first compound, second compound 0.3 µM) did it give?
Answer: < 7.00

Question: What about the pIC50 (curve of first compound, second compound 0.949 µM) of the same compound?
Answer: < 7.00

Question: And the pIC50 (curve of first compound, second compound 3 µM)?
Answer: < 7.00

Question: And the pIC50 (curve of first compound, second compound 9.49 µM)?
Answer: < 7.00

Question: And the pIC50 (curve of first compound, second compound 30 µM)?
Answer: < 7.00

Question: And the viability, T/C (second compound 0.3 µM, first compound 0.000316 µM)?
Answer: 102%

Question: What about the viability, T/C (second compound 0.3 µM, first compound 0.001 µM) of the same compound?
Answer: 106%

Question: And the viability, T/C (second compound 0.3 µM, first compound 0.00316 µM)?
Answer: 103%

Question: What about the viability, T/C (second compound 0.3 µM, first compound 0.01 µM) of the same compound?
Answer: 103%

Question: And the viability, T/C (second compound 0.3 µM, first compound 0.0316 µM)?
Answer: 103%

Question: What about the viability, T/C (second compound 0.3 µM, first compound 0.1 µM) of the same compound?
Answer: 102%

Question: What about the viability, T/C (second compound 0.949 µM, first compound 0.000316 µM) of the same compound?
Answer: 104%

Question: What about the viability, T/C (second compound 0.949 µM, first compound 0.001 µM) of the same compound?
Answer: 104%

Question: And the viability, T/C (second compound 0.949 µM, first compound 0.00316 µM)?
Answer: 111%

Question: And the viability, T/C (second compound 0.949 µM, first compound 0.01 µM)?
Answer: 105%

Question: And the viability, T/C (second compound 0.949 µM, first compound 0.0316 µM)?
Answer: 99.5%

Question: And the viability, T/C (second compound 0.949 µM, first compound 0.1 µM)?
Answer: 92.3%

Question: And the viability, T/C (second compound 3 µM, first compound 0.000316 µM)?
Answer: 107%

Question: And the viability, T/C (second compound 3 µM, first compound 0.001 µM)?
Answer: 109%

Question: What about the viability, T/C (second compound 3 µM, first compound 0.00316 µM) of the same compound?
Answer: 109%

Question: What about the viability, T/C (second compound 3 µM, first compound 0.01 µM) of the same compound?
Answer: 105%

Question: What about the viability, T/C (second compound 3 µM, first compound 0.0316 µM) of the same compound?
Answer: 95.1%

Question: What about the viability, T/C (second compound 3 µM, first compound 0.1 µM) of the same compound?
Answer: 97.5%

Question: And the viability, T/C (second compound 9.49 µM, first compound 0.000316 µM)?
Answer: 104%

Question: And the viability, T/C (second compound 9.49 µM, first compound 0.001 µM)?
Answer: 105%

Question: What about the viability, T/C (second compound 9.49 µM, first compound 0.00316 µM) of the same compound?
Answer: 95.5%

Question: What about the viability, T/C (second compound 9.49 µM, first compound 0.01 µM) of the same compound?
Answer: 101%

Question: What about the viability, T/C (second compound 9.49 µM, first compound 0.0316 µM) of the same compound?
Answer: 93.9%

Question: What about the viability, T/C (second compound 9.49 µM, first compound 0.1 µM) of the same compound?
Answer: 100%

Question: And the viability, T/C (second compound 30 µM, first compound 0.000316 µM)?
Answer: 92.2%

Question: And the viability, T/C (second compound 30 µM, first compound 0.001 µM)?
Answer: 89%

Question: And the viability, T/C (second compound 30 µM, first compound 0.00316 µM)?
Answer: 92.3%

Question: What about the viability, T/C (second compound 30 µM, first compound 0.01 µM) of the same compound?
Answer: 86.4%

Question: And the viability, T/C (second compound 30 µM, first compound 0.0316 µM)?
Answer: 92.2%

Question: And the viability, T/C (second compound 30 µM, first compound 0.1 µM)?
Answer: 84.5%
